Data on 88 compounds can be found in a melting point compilation (Tetko et al.; mined from patent text by program, amines drawn as free bases though some values may be those of a salt).

As usually defined, the melting point is the temperature of the solid-liquid transition. `O=C(NCc1ccc(F)cc1)c1sc2ccccc2c1Br` had a melting point of 120 to 125 °C.
In the case of `O=Cc1c([N+](=O)[O-])ccc(Cl)c1[N+](=O)[O-]` it was 101 to 102 °C; in that of `COc1ccc(CN2C(=O)[C@@H](NC(=O)Cc3ccccc3)[C@H]2CO)c(OC)c1` (relative stereo), 152 to 154 °C; in that of `CC(=O)NCC1OC(n2cc(C=CBr)c(=O)[nH]c2=O)CC1Cl` (stereo not drawn), 163 to 165 °C.
In the case of `COc1cccc(C=CC(=O)NC2CCNC(=O)C2)c1OC` (stereo not drawn) it was 164 to 166 °C.
In the case of `CCOC(=O)c1c[nH]c2nc(SCC)c(F)cc2c1=O` it was 280 to 284 °C.
Compound `Nc1nc2c(s1)CC(N1CCN(c3ccccn3)CC1)CC2` (single isomer, unassigned; (-)) showed a melting point of 230 to 232 °C.
The compound `FC(F)(F)Oc1ccc2[nH]c(-c3cccnc3)nc2c1` came in with a melting point of 197 to 199 °C.
In the case of `CCOC(=O)c1c(O)c2c(CC)nc(CC)cc2[nH]c1=O` it was 159 to 160 °C; in that of `CC(C)N1CCN(CCN2CCN(c3noc4cc(F)ccc34)CC2)C1=O`, 125 to 127 °C.
For the compound `COC(=O)c1ccc(Cc2c(C(=O)OC)n(-c3ccccc3)c3nc(C)ccc3c2=O)cn1`, the melting point was 177 to 178 °C.
In the case of `CCOC(=O)COc1c2c3c(ccnc3c3ccccc13)CCC2` it was 70 °C; in that of `Oc1ccc2c(c1)COc1c-2cc2ccc(O)cc2c1-c1cccs1`, 233 to 236 °C.
Take `O=C(NCCCSc1ccncc1)c1ccccc1`: the melting point was 120 to 121 °C.
In the case of `Cc1ccc(-n2nc(C(=O)CCCO[N+](=O)[O-])cc2-c2ccc(S(C)(=O)=O)cc2)cc1` it was 107 to 109 °C; in that of `CCOC(=O)/C=C/c1cn(-c2ccccc2)nc1OCc1ccc(OCc2nc(-c3ccco3)oc2C)cc1`, 142 to 143 °C.
Regarding `OC1CSC(Oc2cncc(-c3ncccn3)c2)C(O)C1O` (stereo not drawn), the melting point stood at 201 °C.
`CCCCCCCCCCC1=C(O)C(=O)NC1=O` gave a melting point of 109 to 111 °C.
Turning to `Nc1cccc(Cc2n[nH]c(=O)c3ccccc23)c1`, the melting point was in the range of 175 to 177 °C.
In the case of `COc1ccc(/C=C/C(=O)N2CC(CCl)c3c2cc(NC(=O)OC(C)(C)C)c2ccccc32)cc1` (stereo not drawn) it was 185 to 186 °C.
For the compound `Cn1ncc(C(=O)N2CCCC2)c1C(=O)Nc1ccc2nc(-c3ccccc3)nn2c1`, the melting point came to 210 °C.
In the case of `CCCCc1nnc(C(=O)N(C)Cc2ccccc2)n1Cc1ccc(-c2ccccc2C#N)cc1` it was greater than 40 °C; in that of `COc1ccc2cc(C3=CCC4(CCNCC4)CC3)ccc2c1`, 147 to 150 °C.
In the case of `Cn1nnnc1-c1cccc(Oc2cccc(C(F)(F)F)c2)n1` it was 92 to 94 °C; in that of `CCN(C(=O)N1CCN(c2cc(OC)cc(OC)c2)CC1)c1cc2ccccc2nc1OC`, 118 to 120 °C; in that of `N#Cc1c(N2CCN(C(=O)C3CCCO3)CC2)c2ccccc2n(Cc2ccc(F)cc2)c1=O` (stereo not drawn), 123 to 135 °C.
In the case of `COC(CC[C@](C)(O)[C@@H](/C=C\C=C\c1ccccc1)Sc1ccccc1)OC` (racemic) it was 59.5 to 61 °C.
The compound `NC(=O)Nc1ccc(-c2nnc(CSCCOc3ccccc3)o2)cc1` registered a melting point greater than 220 °C.
In the case of `CCCCNC(=O)NC(=O)c1cc([N+](=O)[O-])cnc1C` it was 111 to 112 °C; in that of `CC(=O)OCC(C)(COC(C)=O)C(=O)O`, 85 °C; in that of `CC(=O)OC1CCCC2=CC=C3C4CCC(C(C)CCCC(C)C)C4(C)CCC3C21C` (stereo not drawn), 105 to 106 °C.
In the case of `CCOC(=O)c1ccc(NCc2cc(Br)ccc2OCc2ccccc2)c(N)c1` it was 135 °C; in that of `C=C(CCl)COc1ccc(C(=O)OC)cc1CS(=O)(=O)c1ccccc1`, 92 to 93 °C.
In the case of `CCOC(=O)c1ccc(C2=CCCc3ccccc32)cc1` it was 81 °C; in that of `Cc1ccc(-c2nc(COc3ccc(CCCCn4ccnc4)cc3)co2)o1`, 91 to 92 °C.
In the case of `CNC(=O)c1cc2ccc3c(c2c(-c2ccc(OC(F)(F)F)cc2)c1CO)OCO3`, the melting point lay within 195 to 197 °C.
In the case of `N#Cc1cc2c(s1)CCCC2NC=O` (stereo not drawn) it was 131 to 134 °C; in that of `CN(C)CCNC(=O)N1CCN(c2ccc(F)cc2)CC1`, 99 to 101 °C; in that of `CCOC(=O)C1=C(N2CCCC2)N=C(C)C(C(=O)OCC)C1c1cccc2ccccc12` (stereo not drawn), 121 °C.
With `N#CSCC(I)=C(I)CBr`, the melting point was 84 to 86 °C.
`Cc1ncc(CNC(=O)c2sc(-n3cnn(Cc4ccc(F)cc4)c3=O)nc2C)s1` had a melting point of 176 to 177 °C.
In the case of `CCOC(=O)[C@@H](CNC(=O)c1ccccc1)[C@H](C)O` it was 72 to 73 °C; in that of `CCCCCCCOCCCCCCNCc1c(CO)ccc(O)c1CO`, 72 to 74 °C; in that of `CCOC(=O)c1nn(-c2cccc(C)c2)c(=O)c2c(N)scc12`, 190 to 191 °C.
In the case of `CCCCCC1CCN([C@H]2CC[C@H](C(=O)OC)CC2)CC1` it was 5 °C; in that of `CC(=O)Nc1ccc(Nc2ccccc2)cc1`, 169 to 171 °C.
In the case of `COc1ccc(-c2cc(CO)nn2-c2ccc(S(N)(=O)=O)cc2)cc1I` it was 196 to 198 °C; in that of `COC12CC(C(C)COC(=O)c3[nH]c(C)cc3C)CN(C)C1Cc1cn(C)c3cccc2c13` (stereo not drawn), 128 to 130 °C.
`Cc1cccc(C(Nc2ccccc2)P(=O)(Oc2ccccc2)Oc2ccccc2)n1` (stereo not drawn): the melting point lay in the range of 110 to 112 °C.
In the case of `N#Cc1ccc2c(c1)C1OC1C1(CCCCC1)O2` (stereo not drawn) it was 222 to 225 °C; in that of `O=[N+]([O-])c1oc2c(CCO)cccc2c1-c1ccccc1`, 133 to 136 °C.
In the case of `O=S(=O)(Cc1ccccc1)C1CCN(Cc2ccccc2)CC1` it was 120 to 121 °C; in that of `Cc1c(Cc2ccc(C(C)C)cc2)c2c(c(C)c1NC(=O)CC(C)(C)C)C(c1ccccc1)CO2` (stereo not drawn), 137 to 141 °C; in that of `OCCCc1ccc(SCc2coc(/C=C/c3ccccc3)n2)cc1`, 91 to 92 °C.
In the case of `O=C(Nc1ccc(S(=O)(=O)C(F)(F)F)cc1Cl)c1c(O)c(C23CC4CC(CC(C4)C2)C3)cc2c1CCC2` it was 218 to 219 °C; in that of `CC(C)(CCCOc1cccc(C(F)(F)F)c1)C(=O)O`, 96 to 97 °C.
As for `CC(=O)c1sccc1CN1C(=O)C(NC(=O)Nc2cccc(C)c2)N=C(C2CCCCC2)c2ccccc21` (racemic), the melting point lay in the range of 231 to 232 °C.
In the case of `CCc1cc(COc2nn(Cc3ccccc3)cc2C=O)ccc1OCc1nc(-c2ccco2)oc1C` it was 128 to 129 °C.
`O=c1[nH]c2sccc2c2ccccc12`: the melting point fell in the range of 266 to 268 °C.
In the case of `Cc1ccc(-c2nc(Cc3cccc(CBr)c3)c(C)o2)cc1` it was 101 to 102 °C; in that of `Cc1cc(-c2cnn3c(C(F)(F)F)cc(-c4ccc(Br)cc4)nc23)cc(C)n1`, 258 °C.
In the case of `CC(c1oc2ccc(F)cc2c(=O)c1-c1cccc(F)c1)n1cnc2c(N)ncnc21` (stereo not drawn) it was 252 to 255 °C; in that of `CS(=O)c1cnc2c(c1)CCC(c1ccc(Cl)c(Cl)c1)O2` (stereo not drawn), 159 to 162 °C.
In the case of `CC(=O)C(=NNc1ccc(Oc2ccccc2)cc1)Sc1ccc(Cl)cc1` it was 152 to 155 °C; in that of `NC(=O)CN(N=O)N1CCOCC1`, 134 to 136 °C; in that of `CO/N=C1\CCCC[C@@H]1NC(=O)c1ncc(O[C@@H](C)C(F)(F)F)c(-c2ccc(Cl)cc2)n1`, 180 to 182 °C.
As to `CC1N(c2cc(CC(Cl)C(=O)O)c(Cl)cc2Cl)NC(=O)N1C(F)F` (stereo not drawn), the melting point was 138 to 141 °C.
In the case of `COCCOC(=O)c1ccccc1Nc1nc(Nc2cc3c(cc2OC)CCN(CCO)CC3)ncc1Cl` it was 125 to 131 °C; in that of `Nc1cc([N+](=O)[O-])ccc1OCC(O)CN1C(=O)CCC1=O` (stereo not drawn), 200 °C.
Compound `O=C(O)c1ccc(NC(=O)C(CS)Cc2ccccc2)cc1O` (stereo not drawn) showed a melting point of 166 to 170 °C.
In the case of `Cc1ccc(S(=O)(=O)n2ccnc2C(O)(c2ccc(F)cc2)c2ccc(F)cc2)cc1` it was 149 to 151 °C.
For `Cc1ccc(S(=O)(=O)c2ncc(I)cn2)cc1`, the melting point lay in the range of 138 to 139 °C.
In the case of `O=C(c1ccc(Cl)c(Cl)c1)N1CCc2cc(S(=O)(=O)N3CCN(c4cccc(Cl)c4)CC3)ccc21` it was 174 to 175 °C; in that of `CCOC(=O)C(C)CNc1c(C#N)cnn1-c1c(F)c(F)c(CC)c(F)c1F` (stereo not drawn), 76 to 78 °C.
In the case of `CC(C)(c1cc(F)ccc1O)c1cc(F)ccc1O` it was 155 °C; in that of `c1cnc2[nH]cc(C3CN4CCC3CC4)c2c1` (stereo not drawn), 185 °C.
In the case of `COc1ccc2[nH]cc(Cc3cccnc3)c2c1` it was 112 °C; in that of `O=C1c2ccccc2C(=O)N1CC(=O)N1c2ccccc2N(Cc2cccc([N+](=O)[O-])c2)C(=O)[C@H]2CCC[C@H]21` (relative stereo), 250 to 252 °C.
The compound `CNC(=O)c1ncn2c(=O)n(CCCl)nnc12` displayed a melting point of 120 to 122 °C.
In the case of `Nc1ccc(OCCCCN2C(=O)c3ccccc3C2=O)cc1` it was 119 to 121 °C; in that of `O=c1[nH]c(CCCN2CCCC2)cc2c(O)cccc12`, 222 to 225 °C; in that of `O=C(NC(=O)c1ccc(F)cc1Cl)Nc1ccc(C(F)(F)F)cc1F`, 194 °C.
In the case of `CCCc1cc(=O)n(-c2cc(C(=O)OC(C)C)c(Cl)cc2F)c(=O)[nH]1` it was 192 to 193 °C; in that of `CN(C)C(=O)Nc1cccc(Cl)c1`, 138 to 142 °C.
In turn, `CN1CCN(c2cccc3c2C[C@H](NC(=O)c2ccc(OS(C)(=O)=O)cc2)CC3)CC1` registered a melting point of 199 to 200 °C.
In the case of `Cc1cccc(-c2nc(CCOc3ccc(CCCC4OC(=O)NC4=O)cc3)c(C)o2)c1` (stereo not drawn) it was 149 to 150 °C.
In turn, `COc1ccc(-c2[nH]ccc2S(=O)(=O)C(F)(F)F)cc1` came in with a melting point of 138 to 140 °C.
In the case of `CC(C)C[C@@H](C(=O)OCc1ccccc1)N1C(=O)[C@@H](N2C(=O)OC[C@@H]2c2ccccc2)[C@H]1CCc1ccccc1` it was 138 to 140 °C.
